According to patent publication US20020094522A1, “Means and methods for monitoring non-nucleoside reverse transcriptase inhibitor antiretroviral therapy and guiding therapeutic decisions in the treatment of HIV/AIDS” (priority 2000, published 2002):

Assays:
[1] = test system: RTV-964 (patient sample 98-964); experiment: Phenotypic susceptibility assay, RTV-964; type: cell-based, HIV-1; conditions: RTV-964, patient-derived pool
Procedure: (§1) Transfections were performed using a calcium-phosphate precipitation procedure. […] Cell lysates were assayed for luciferase activity (FIG. 3).
(§2) The drug inhibition curves are shown in (FIG. 3).
A resistance test vector was constructed as described in Example 1 from a patient sample designated 98-964. […] Isolation of viral RNA and RT/PCR was used to generate a patient derived segment that comprised viral sequence coding for all of PR and aa 1-313 of RT. The PDS was inserted into an indicator gene viral vector to generate a resistance test vector designated RTV-964. RTV-964 was then tested in a phenotypic assay to determine accurately and quantitatively the level of susceptibility to a panel of anti-retroviral drugs. […] An IC50 was determined for the resistance test vector pool for each drug tested. The pattern of susceptibility to all of the drugs tested was examined and compared to known patterns of susceptibility.

[2] = test system: RTV-652 (patient sample 98-652); type: cell-based, HIV-1; conditions: values <1 = increased susceptibility
Source text: (§3) The resistance test vectors containing a functional luciferase gene cassette were constructed and host cells were transfected with the resistance test vector DNA. The resistant test vectors contained patient-derived reverse transcriptase and protease sequences that were either susceptible or resistant to the antiretroviral agents, such as nucleoside reverse transcriptase inhibitors, non-nucleoside reverse transcriptase inhibitors and protease inhibitors. The resistance test vector viral particles produced by transfecting the resistance test vector DNA into host cells, either in the presence or absence of protease inhibitors, were used to infect target host cells grown either in the absence of NRTI or NNRTI or in the presence of increasing concentrations of the drug. […] The IC50 values were determined by plotting percent drug inhibition vs. log10 drug concentration.
(§4) Host cells were seeded in 10-cm-diameter dishes and were transfected several days after plating with resistance test vector plasmid DNA and the envelope expression vector. […] HIV capsid protein (p24) levels in the harvested cell culture media were determined by an EIA method as described by the manufacturer (SIAC; Frederick, Md.). […] The inhibitory effect of the drug was determined using the following equation: […]
An IC50 was determined for the resistance test vector pool for each drug tested.

[3] = test system: RTV-302 (patient sample 97-302; K103N, P225H); experiment: Phenotypic susceptibility assay, RTV-302; type: cell-based, HIV-1; conditions: RTV-302, patient-derived
Procedure: as §1, §2
A resistance test vector was constructed as described in example 1 from a patient sample designated as 97-302. This patient had been treated with d4T, indinavir and DMP-266 for a period of approximately 10 months. Isolation of viral RNA and RT/PCR was used to generate a patient derived segment that comprised viral sequences coding for all of PR and aa 1-313 of RT. The patient derived segment was inserted into a indicator gene viral vector to generate a resistance test vector designated RTV-302. RTV-302 was tested using a phenotypic susceptibility assay to determine accurately and quantitatively the level of susceptibility to a panel of anti-retroviral drugs. […] An IC50 was determined for each drug tested. Susceptibility of the patient virus to each drug was examined and compared to known patterns of susceptibility.

[4] = test system: patient 487 virus (RT M184V, K103N); experiment: Phenotypic susceptibility assay, patient 487; type: cell-based, HIV; conditions: patient 487, FIG. 4
Source text: as §3, §4

[5] = test system: RTV-1057 (patient sample 98-1057); experiment: Phenotypic susceptibility assay, RTV-1057; type: cell-based, HIV-1; conditions: RTV-1057, patient-derived pool
Procedure: as §1, §2
A resistance test vector was constructed as described in Example 1 from a patient sample designated 98-1057. This patient had been previously treated with ddI, d4T, AZT, and 3TC (NRTIs), saquinavir and indinavir (PRIs) and delavirdine (an NNRTI). Isolation of viral RNA and RT/PCR was used to generate a patient derived segment that comprised viral sequences coding for all of PR and aa 1-313 RT. The PDS was inserted into an indicator gene viral vector to generate resistance test vector designated RTV-1057. RTV-1057 was then tested in a phenotypic assay to determine accurately and quantitatively the level of susceptibility to a panel of anti-retroviral drugs. […] An IC50 was determined for the resistance test vector pool for each drug tested. The pattern of susceptibility to all of the drugs tested was examined and compared to known patterns of susceptibility.

[6] = test system: RTV-644 (patient sample 97-644 / 98-644); experiment: Phenotypic susceptibility assay, RTV-644; type: cell-based, HIV-1; conditions: for susceptibility/resistance compared to reference virus: RTV-644, Example 5; for fold decrease in susceptibility (IC50): RTV-644, patient-derived pool
Source text: The resistance test vectors containing a functional luciferase gene cassette were constructed and host cells were transfected with the resistance test vector DNA. The resistant test vectors contained patient-derived reverse transcriptase and protease sequences that were either susceptible or resistant to the antiretroviral agents, such as nucleoside reverse transcriptase inhibitors, non-nucleoside reverse transcriptase inhibitors and protease inhibitors. The resistance test vector viral particles produced by transfecting the resistance test vector DNA into host cells, either in the presence or absence of protease inhibitors, were used to infect target host cells grown either in the absence of NRTI or NNRTI or in the presence of increasing concentrations of the drug. The amount of luciferase activity produced in infected target host cells in the presence of drug was compared to the amount of luciferase produced in infected target host cells in the absence of drug. Drug resistance was measured as the amount of drug required to inhibit by 50% the luciferase activity detected in the absence of drug (inhibitory concentration 50%, IC50). The IC50 values were determined by plotting percent drug inhibition vs. log10 drug concentration.
Host cells were seeded in 10-cm-diameter dishes and were transfected several days after plating with resistance test vector plasmid DNA and the envelope expression vector. Transfections were performed using a calcium-phosphate precipitation procedure. The cell culture media containing the DNA precipitate was replaced with fresh medium, from one to 24 hours, after transfection. Cell culture media containing resistance test vector viral particles was harvested one to four days after transfection and was passed through a […] filter before being stored at −80° C. HIV capsid protein (p24) levels in the harvested cell culture media were determined by an EIA method as described by the manufacturer (SIAC; Frederick, Md.). Before infection, target cells (293 and 293/T) were plated in cell culture media. Control infections were performed using cell culture media from mock transfections (no DNA) or transfections containing the resistance test vector plasmid DNA without the envelope expression plasmid. One to three or more days after infection the media was removed and cell lysis buffer (Promega) was added to each well. […] The inhibitory effect of the drug was determined using the following equation: […]
Isolation of viral RNA and RT/PCR was used to generate a patient derived segment that comprised viral sequences coding for all of PR and amino acids 1-313 of RT. […] An IC50 was determined for each drug tested. […]

[7] = test system: RTV-675 (patient sample 98-675); experiment: Phenotypic susceptibility assay, RTV-675; type: cell-based, HIV-1; conditions: RTV-675, patient-derived pool
Procedure: as §1, §2
A resistance test vector was constructed as described in Example 1 from a patient sample designated 98-675. This patient had been previously treated with ddI, AZT, and 3TC (NRTIs), and saquinavir and nelfinavir (PRIs). Isolation of viral RNA and RT/PCR was used to generate a patient derived segment that comprised viral sequences coding for all of PR and aa 1-313 of RT. The PDS was inserted into an indicator gene viral vector to generate a resistance test vector designated RTV-675. RTV-675 was then tested in a phenotypic assay to determine accurately and quantitatively the level of susceptibility to a panel of anti-retroviral drugs. […] The pattern of susceptibility to all of the drugs tested was examined and compared to known patterns of susceptibility.

| Compound | fold decrease in susceptibility (IC50) [1] | fold change in susceptibility (IC50) [2] | change in susceptibility [3] | susceptibility/resistance profile [4] | fold decrease in susceptibility (IC50) [5] | susceptibility/resistance compared to reference virus [6] | fold decrease in susceptibility (IC50) [6] | fold decrease in susceptibility (IC50) [7] |
| --- | --- | --- | --- | --- | --- | --- | --- | --- |
| CC(C)Nc1cccnc1N1CCN(C(=O)c2cc3cc(NS(C)(=O)=O)ccc3[nH]2)CC1 [delavirdine] | 10 fold | 0.97 fold | modest decrease in delavirdine susceptibility | increased resistance | 35 fold | little or no resistance to delavirdine | 2.5 fold | 2.1 fold |
| Cc1ccnc2c1NC(=O)c1cccnc1N2C1CC1 [nevirapine] | 750 fold | 5 fold | significant decrease in nevirapine susceptibility | increased resistance | 610 fold | resistant to nevirapine | 600 fold | 6 fold |
